From US20210315893A1 (Galapagos NV, priority 2017, published 2021)

How the values were obtained:
[1] = target: T1, human GPCR sphingosine 1-phosphate receptor 2 (Homo sapiens, UniProt O95136); assay: S1PR2 antagonist Ca2+ flux assay; type: cell-based; details: antagonist mode, CHO-S1PR2 cells, S1P at EC80, Ca2+ fluorescence; read-out: S1P2 EC50 (nM), S1P2 antagonist EC50
T1 construct: host or cells: CHO
Method: Triggering of S1PR2 by administration of Sphingosine-1-phosphate leads to a transient increase in intracellular Ca^2+. The Ca^2+ flux assays are measuring the release of Ca^2+ intracellularly by use of a Ca^2+ sensitive fluorescent dye. The assay is firstly run in agonist mode (incubation of compounds alone) to ensure that the Ca^2+ released measured is not caused by the test compound having an agonistic effect. Then the assay is continued in antagonist mode (Sphingosine-1-Phosphate added to incubated medium containing the test compounds).
CHO cells stably overexpressing human GPCR sphingosine 1-phosphate receptor 2 (CHO-S1PR2 Perkin Elmer; ES-594-A) are seeded from a frozen stock in 384 wells sterile microplates (50 μL; 7,500 cells/well) and are incubated overnight at 37° C. and 5% CO2. The next day cells are washed twice with starvation medium (F-12 Ham's medium containing 0.1% BSA (Fatty acid free: FAF)) and left in 25 μL starvation medium for 1 h at 37° C., 5% CO2. After this starvation cells are incubated with 25 μL buffer containing the Ca^2+-sensitive fluorescent dye (0.5 mg Fluo8+125 mg Allura Red in 100 mL of 1% DMSO, in HBSS+20 mM Hepes+5 mM probenecid). The cells are incubated for an additional 1 h after which 10 μL compounds, diluted in HBSS buffer with 20 mM Hepes and 0.1% BSA (FAF), are added to the cells and intracellular Ca2+ changes are immediately measured by reading fluorescence during 3 min (FDSS/pCELL reader). The ratio of the maximal fluorescence over the background fluorescence before compound injection is used to determine compound response.
After readout of the agonist activity, the plates are incubated for 15 min at 37° C. and 5% CO2. Then, cells are stimulated with 10 μL Sphingosine-1-Phosphate (S1P) (Avanti Polar lipids-860492P) at its EC80 concentration. Intracellular Ca2+ changes are immediately measured by reading fluorescence during 3 min (FDSS/pCELL reader). The ratio of the maximal fluorescence over the background fluorescence before compound injection is used to determine compound response.
The obtained ratio's for agonist and antagonist readout were normalized versus vehicle and EC 100 of S1P ascontrols for agonist mode and versus vehicle and […]. From these normalized data EC50 of the compounds are derived.

S1PR2 = target: T2, S1PR2 (Homo sapiens, UniProt O95136); assay: S1PR2 binding assay (competition with radioactively labeled S1P, SpA); details: membranes from stable cell line over expressing S1PR2, SpA beads; read-out: S1P2 EC50 (nM), S1PR2 binding EC50
T2 construct: expressed in transfected cells
Method: The following assay can be used for determination of S1PR2 binding. The binding assay measures the potential to compete with radioactively labeled S1P for binding to the receptor.
The assay is performed in a96 well plate where the following reagents are added. First 50 μL compound is added into the assay plate, followed by addition of 100 μL ofa mixture consisting of membrane and Scintillation proximity Assay (SpA) beads [mixture consists […] membranes derived from stable cell line over expressing SPR2, 0.5 mg/well Polyvinyltoluene-Wheat Germ-Agglutinin (PVT-WGA) beads (Perkin Elmer, RPNQOO1)]. All components are diluted in assay buffer containing 20 mM Tris pH 7.5; 10 mM MgCl2; 100 mM NaCl; 0.4% BSA FAF; 1 mM Na3VO4) and incubated for 15 min until addition to the assay plate. Subsequently, 50 ul of radioactively labeled S1P is added to the wells (Sphingosine, D-erythro-[3-3H] 1-phosphate; ARC; ART0778). After an incubation for 2 h at room temperature, plates are centrifuged at 2000 rpm during 20 min. Plates are read on a Topcount reader (Perkin Elmer) immediately after centrifugation (readout time, 1 min/well).

HFL-1 cells [2] = assay: IL-8 production assay (S1P induced IL-8); type: cell-based; details: Homo sapiens, HFL1; S1P (1 μM) induced IL-8 in HFL-1 cells, starvation medium without HSA; read-out: IL8 EC50
Method: This assay is designed to test inhibitory activity of compounds on S1P induced IL-8 on HFL-1 cells, ahuman fetal lung fibroblast cell line.
Human Fetal Lung cells (HFL-1) are seeded in 96 well plates in growth medium (F12K+10% heat inactivated FBS+l1% Pen/strep). After overnight incubation at 37° C., […] cells are refreshed with starvation medium without HSA (F12K+1% FBS+1% Pen/strep). On day three, compounds are added (10 point serial dilution, 30 μM highest concentration, 1/3 dilution, 0.3% DMSO final) and plates are incubated for one h at 37° C., 5% CO2. Subsequently S1P at 1 μM final concentration is added and plates are incubated for 16 to24 h at 37° C., […] after which the supermatant was collected. IL-8 levels in the supernatant are determined with the IL-8 ELISA of R&D systems.

HFL-1 cells [3] = assay: IL8 assay in the presence of Human Serum Albumin; details: HFL1, read-out: HSA IL8 EC50
Method: To evaluate the influence of plasma protein binding of S1P as well as compound, the S1P induced IL-8 levelswereevaluatedin presence of Human Serum Albumin (HSA, equivalent to 40% human serum).
Human Fetal Lung cells (HFL-1) are seeded in 96 well plates in growth medium (F12K+10% heat inactivated FBS+1% Pen/strep). […] On day three, compounds are added (10 point serial dilution, 30 μM highest concentration, 1/3 dilution, 0.3% DMSO final) and plates are incubated for 1 h at 37° C., 5% CO2. Subsequently S1P at 5 μM final concentration is added and plates are incubated for 16 to 24 h at 37° C., 5% COafter which the supernatant was collected. IL-8 levels in the supernatant are determined with the IL-8 ELISA of R&D systems.

T1 sequence (O95136 whole entry): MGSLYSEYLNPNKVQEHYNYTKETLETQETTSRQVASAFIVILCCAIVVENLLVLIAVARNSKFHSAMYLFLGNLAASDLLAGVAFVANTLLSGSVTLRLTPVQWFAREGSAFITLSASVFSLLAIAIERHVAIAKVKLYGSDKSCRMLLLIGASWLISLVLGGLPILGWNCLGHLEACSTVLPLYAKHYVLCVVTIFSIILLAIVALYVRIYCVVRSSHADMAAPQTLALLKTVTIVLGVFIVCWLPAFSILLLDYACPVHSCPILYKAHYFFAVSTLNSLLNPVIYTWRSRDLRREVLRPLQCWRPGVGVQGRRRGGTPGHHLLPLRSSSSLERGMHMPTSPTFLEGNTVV
T2 sequence (O95136 whole entry): as above

Row | SMILES | EC50 [1] [nM] | EC50 (S1PR2) [nM] | EC50 (HFL-1 cells [2]) [nM] | EC50 (HFL-1 cells [3]) [nM]
1 | O=c1c2ccccc2c(Cc2nc3cc(Cl)c(OC(F)(F)F)cc3[nH]2)nn1CC1CC1 [Compound 27, 4-[[6-chloro-5-(trifluoromethoxy)-1H-benzimidazol-2-yl]methyl]-2-(cyclopropylmethyl)phthalazin-1-one] | 868 | 3900 | 1110 | 10000
2 | COc1ccc2c(=O)n(CC(=O)N3CCOCC3)nc(Cc3nc4cc(Cl)c(OCC(F)F)cc4[nH]3)c2c1 [Compound 30, 4-[[5-chloro-6-(2,2-difluoroethoxy)-1H-benzimidazol-2-yl]methyl]-6-methoxy-2-(2-morpholino-2-oxo-ethyl)phthalazin-1-one] | 9.47 | 93.3 | 13.7 | 74.5
3 | COc1ccc2c(Cc3nc4cc(Cl)c(OCC(F)F)cc4[nH]3)nn(CC(=O)N3CCOCC3)c(=O)c2c1 [Compound 31, 4-[[5-chloro-6-(2,2-difluoroethoxy)-1H-benzimidazol-2-yl]methyl]-7-methoxy-2-(2-morpholino-2-oxo-ethyl)phthalazin-1-one] | 9.11 | 93.2 | 11 | 72.6
4 | O=C(Cn1nc(Cc2nc3cc(Cl)c(OCC(F)F)cc3[nH]2)c2ccc(N3CCOCC3)cc2c1=O)N1CCOCC1 [Compound 33, 4-[[5-chloro-6-(2,2-difluoroethoxy)-1H-benzimidazol-2-yl]methyl]-7-morpholino-2-(2-morpholino-2-oxo-ethyl)phthalazin-1-one] | 86.5 | 378 | 15.6 | 129
5 | N#Cc1ccc2c(Cc3nc4cc(Cl)c(OCC(F)F)cc4[nH]3)nn(CC(=O)N3CCOCC3)c(=O)c2c1 [Compound 40, 1-[[5-chloro-6-(2,2-difluoroethoxy)-1H-benzimidazol-2-yl]methyl]-3-(2-morpholino-2-oxo-ethyl)-4-oxo-phthalazine-6-carbonitrile] | 86.4 | 261 | 145 | 292
6 | CS(=O)(=O)c1ccc2c(=O)n(CC(=O)N3CCOCC3)nc(Cc3nc4cc(Cl)c(OCC(F)F)cc4[nH]3)c2c1 [Compound 41, 4-[[5-chloro-6-(2,2-difluoroethoxy)-1H-benzimidazol-2-yl]methyl]-6-methylsulfonyl-2-(2-morpholino-2-oxo-ethyl)phthalazin-1-one] | 1050 | 1310 | 685 | 2780
7 | O=C(O)C1(Cn2nc(Cc3nc4cc(Cl)c(OC(F)(F)F)cc4[nH]3)c3ccccc3c2=O)CC1 [Compound 47, 1-[[4-[[5-chloro-6-(trifluoromethoxy)-1H-benzimidazol-2-yl]methyl]-1-oxo-phthalazin-2-yl]methyl]cyclopropanecarboxylic acid] | 2240 | 4520 | 1360 | 10000
8 | N#Cc1cc2[nH]c(Cc3nn(CC(=O)N4CCOCC4)c(=O)c4cccc(C5CC5)c34)nc2cc1OCC(F)F [Compound 54, 2-[[8-cyclopropyl-3-(2-morpholino-2-oxo-ethyl)-4-oxo-phthalazin-1-yl]methyl]-6-(2,2-difluoroethoxy)-3H-benzimidazole-5-carbonitrile] | 23.8 | 93.5 | 32.2 | 41.1
9 | O=c1c2ccccc2c(Cc2nc3cc(Cl)c(OC(F)(F)F)cc3[nH]2)nn1CC1CNC1 [Compound 61, 2-(azetidin-3-ylmethyl)-4-[[6-chloro-5-(trifluoromethoxy)-1H-benzimidazol-2-yl]methyl]phthalazin-1-one] | 677 | 581 | 591 | 1120
10 | O=c1c2ccccc2c(Cc2nc3cc(Cl)c(OC(F)(F)F)cc3[nH]2)nn1C1CCNCC1 [Compound 62, 4-[[6-chloro-5-(trifluoromethoxy)-1H-benzimidazol-2-yl]methyl]-2-(4-piperidyl)phthalazin-1-one] | 968 | 453 | 349 | 6430
11 | N#Cc1cc2nc(Cc3nn(C4CN(CC(=O)O)C4)c(=O)c4ccccc34)cn2cc1OCC1CC1 [Compound 73] | 1330 | 478 | 365 | 563
12 | CN(C)CC(C(=O)O)n1nc(Cc2nc3cc(OCC(F)F)c(C#N)cc3[nH]2)c2ccccc2c1=O (stereo not shown) [Compound 74, 2-[4-[[6-cyano-5-(2,2-difluoroethoxy)-1H-benzimidazol-2-yl]methyl]-1-oxo-phthalazin-2-yl]-3-(dimethylamino)propanoic acid] | 2660 | 5330 | 823 | 779
13 | CC(C)(C)COc1cc2[nH]c(Cc3nn(CC(=O)N4CCOCC4)c(=O)c4ccccc34)nc2cc1Cl [Compound 160, 4-[[5-chloro-6-(2,2-dimethylpropoxy)-1H-benzimidazol-2-yl]methyl]-2-(2-morpholino-2-oxo-ethyl)phthalazin-1-one] | 47.9 |  | 133 | 1050
14 | CCOc1cc2[nH]c(Cc3nn(CC(=O)N4CCOCC4)c(=O)c4ccccc34)nc2cc1Cl [Compound 165, 4-[(5-chloro-6-ethoxy-1H-benzimidazol-2-yl)methyl]-2-(2-morpholino-2-oxo-ethyl)phthalazin-1-one] |  |  | 4.65 | 79.9
15 | CC(C)COc1cc2[nH]c(Cc3nn(CC(=O)N4CCOCC4)c(=O)c4ccccc34)nc2cc1Cl [Compound 173, 4-[(5-chloro-6-isobutoxy-1H-benzimidazol-2-yl)methyl]-2-(2-morpholino-2-oxo-ethyl)phthalazin-1-one] | 16 |  | 2.4 | 3.47
16 | N#Cc1cc2[nH]c(Cc3nn(CC(=O)N4CC(O)(C5CC5)C4)c(=O)c4ccccc34)nc2cc1OCC(F)F [Compound 215, 2-[[3-[2-(3-cyclopropyl-3-hydroxy-azetidin-1-yl)-2-oxo-ethyl]-4-oxo-phthalazin-1-yl)methyl]-6-(2,2-difluoroethoxy)-3H-benzimidazole-5-carbonitrile] | 120 |  | 200 | 112
17 | N#Cc1cc2nc(Cc3nn(CC(=O)N4CCOCC4)c(=O)c4ccccc34)cn2cc1OCC(F)F [Compound 256, 6-(2,2-difluoroethoxy)-2-[[3-(2-morpholino-2-oxo-ethyl)-4-oxo-phthalazin-1-yl]methyl]imidazo[1,2-a]pyridine-7-carbonitrile] | 11600 |  | 2660 | 2350
18 | CCOc1cc2[nH]c(Cc3nn(CC(=O)O)c(=O)c4ccccc34)nc2cc1Cl [compound 6, 2-[4-[(5-chloro-6-ethoxy-1H-benzimidazol-2-yl)methyl]-1-oxo-phthalazin-2-yl]acetic acid] |  |  | 12.4 | 57.2
